# Measured values published in US20050049294A1, “Methods of using [3.2.0] heterocyclic compounds and analogs thereof” (priority 2003, published 2005).
# pEC50: −log10 of the molar value.
# How the values were obtained:
# [1] = test system: IκBα in HEK293 cells and NF-κB/Luc 293 reporter clone; experiment: Western blot of phosphorylated-IκBα and total IκBα; type: cell-based, human; conditions: 50 and 500 nM, 1 hour pre-treatment, TNF-α 10 ng/mL 30 minutes
# Description: Endogenous protein levels were assessed in both HEK293 cells and the NF-κB/Luc 293 reporter clone.
# Antibodies against total and phosphorylated forms of IκBα were used to determine the endogenous level of each protein and anti-Tubulin antibody was used to confirm equal loading of protein.
# [2] = test system: Caspase-3 activity in Jurkat cells; experiment: Caspase-3 activity assay in Jurkat cells; type: cell-based, human; conditions: EC50 concentration, 19 hours
# Description: Jurkat cells were plated at 2×10^6 cells/3 mL per well in a 6-well plate and incubated at 37° C., 5% (v/v) C02 and 95% (v/v) humidity. […] Bhalla, et al., Blood 82:3133 (1993). […] Cells treated with 0.25% DMSO served as the negative control. The cells were collected by centrifugation and the media removed. Cell pellets were processed for the Caspase-3 activity assay as described in the manufacturer's protocol (EnzChek Caspase-3 Assay Kit from Molecular Probes (E-13183; see Appendix G, which form a part of this application and is also available at hypertext transfer protocol on the worldwide web at “probes.com/media/pis/mp13183.pdf.”. In brief, cell pellets were lysed on ice, mixed with the EnzChek Caspase-3 components in a 96-well plate, and then incubated in the dark for 30 minutes prior to reading fluorescence of cleaved benzyloxycarbonyl-DEVD-AMC using a Packard Fusion with λex=485 nm and λem=530 nm filters. Protein concentrations for lysates were determined using the BCA Protein Assay Kit (Pierce) and these values were used for normalization.
# [3] = test system: 60 human tumor cell lines; experiment: NCI screen of 60 human tumor cell lines; type: cell-based; conditions: 48 h, read-out: mean GI50
# [4] = test system: LeTx-induced cytotoxicity of RAW264.7 cells
# in vitro = conditions: mouse
smiles,measurement,setting,value
"C[C@@]12OC(=O)[C@]1([C@@H](O)[C@@H]1C=CCCC1)NC(=O)[C@@H]2CCCl [Formula II-16, Salinosporamide A]",degradation of total IκBα and phospho-IκBα level,[1],reduced the degradation of total IκBα but also retained the phospho-IκBα level
same,Caspase-3 activity,[2],activation of Caspase-3
same,GI50,[3],< 10 nM
same,"cell-viability, compound + LeTx",[4],82%
same,increase in the viability of LeTx-treated cells compared to LeTx treatment alone,[4],10 fold
same,pEC50,"[4]; read-out: average EC50, viability of LeTx-treated cells",8.44
same,viability at […],in vitro,96%
